Results as given in patent publication US20090215857A1 (Pfizer Products Inc., priority 2005, published 2009).
pKi: −log10 of the molar value. Structures can show the parent of a compound that is named as a salt.

Experiments:
[1] = molecular target: T1, human serotonin transporter (Homo sapiens, UniProt P31645); assay: hSERT receptor binding ([125I]-RTI-55 radioligand); settings: membranes of HEK-293 cells transfected with human serotonin transporter cDNA; 50 pM [125I]-RTI-55; IC50 converted by Cheng-Prusoff; read-out: SERT Ki
T1 construct: expressed in transfected cells; host or cells: HEK-293
Procedure: (§1) Cell pastes of HEK-293 cells transfected with a human serotonin transporter cDNA were prepared. The cell pastes were resuspended in 400 to 700 ml of Krebs-HEPES assay buffer (25 mM HEPES, 122 mM NaCl, 3 mM KCl, 1.2 mM MgSO4, 1.3 mM CaCl2, and 11 mM glucose, pH 7.4) with a Polytron homogenizer at Setting 7 for 30 seconds. Aliquots of membranes (˜2.5 mg/ml protein) were stored in liquid nitrogen until used.
Assays were set up in FlashPlates pre-coated with 0.1% PEI in a total volume of 250 μl containing: test compound (10^−5M to 10^−12M), cell membranes, and 50 pM [^125I]-RTI-55 (Perkin Elmer, NEX-272; specific activity 2200 Ci/mmol). The reaction was incubated and gently agitated for 90 minutes at room temperature, and terminated by removal of assay volume. Plates were covered, and bound [^125I]-RTI-55 was determined using a Wallac Trilux Beta Plate Counter. Test compounds were run in duplicate, and specific binding was defined as the difference between binding in the presence and absence of 10 μM citalopram.
Excel and GraphPad Prism software were used for data calculation and analysis. IC50 values were converted to Ki values using the Cheng-Prusoff equation.

[2] = molecular target: T2, human norepinephrine transporter (Homo sapiens, UniProt P23975); assay: hNET receptor binding ([125I]-RTI-55 radioligand); settings: membranes of HEK-293 cells transfected with human norepinephrine transporter cDNA; 50 pM [125I]-RTI-55; IC50 converted by Cheng-Prusoff; read-out: NET Ki
T2 construct: expressed in transfected cells; host or cells: HEK-293
Procedure: as §1, with “norepinephrine” for “serotonin”, “setting” for “Setting”, “(5” for “(˜2.5”
The binding assay was set up in Beckman deep-well polypropylene plates with a total volume of 250 μl containing: test compound (10^−5M to 10^−12M), cell membranes, and 50 pM [^125I]-RTI-55 (Perkin Elmer, NEX-272; specific activity 2200 Ci/mmol). The reaction was incubated by gentle agitation for 90 minutes at room temperature and was terminated by filtration through Whatman GF/C filter plates using a Brandel 96-well plate harvester. Scintillation fluid (100 μl) was added to each well, and bound [^125I]-RTI-55 was determined using a Wallac Trilux Beta Plate Counter. Test compounds were run in duplicate, and specific binding was defined as the difference between binding in the presence and absence of 10 μM desipramine.
Excel and GraphPad Prism software were used for data calculation and analysis. IC50 values were converted to K, values using the Cheng-Prusoff equation.

T2 sequence (P23975 whole entry): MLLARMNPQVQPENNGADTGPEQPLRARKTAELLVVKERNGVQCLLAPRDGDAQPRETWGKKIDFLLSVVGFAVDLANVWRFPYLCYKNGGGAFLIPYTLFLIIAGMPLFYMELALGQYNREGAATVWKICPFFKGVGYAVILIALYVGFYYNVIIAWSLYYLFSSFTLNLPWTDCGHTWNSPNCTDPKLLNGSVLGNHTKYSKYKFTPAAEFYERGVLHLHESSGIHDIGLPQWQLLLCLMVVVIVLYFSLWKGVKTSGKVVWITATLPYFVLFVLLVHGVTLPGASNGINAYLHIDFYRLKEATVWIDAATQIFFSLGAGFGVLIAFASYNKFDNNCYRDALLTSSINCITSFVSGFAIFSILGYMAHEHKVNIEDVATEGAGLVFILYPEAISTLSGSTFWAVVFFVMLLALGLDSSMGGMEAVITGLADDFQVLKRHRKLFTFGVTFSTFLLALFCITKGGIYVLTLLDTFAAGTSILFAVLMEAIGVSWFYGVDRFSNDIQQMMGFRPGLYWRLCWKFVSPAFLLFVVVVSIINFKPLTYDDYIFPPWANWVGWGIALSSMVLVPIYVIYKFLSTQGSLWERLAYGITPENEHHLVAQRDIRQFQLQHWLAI
T1 sequence (P31645 whole entry): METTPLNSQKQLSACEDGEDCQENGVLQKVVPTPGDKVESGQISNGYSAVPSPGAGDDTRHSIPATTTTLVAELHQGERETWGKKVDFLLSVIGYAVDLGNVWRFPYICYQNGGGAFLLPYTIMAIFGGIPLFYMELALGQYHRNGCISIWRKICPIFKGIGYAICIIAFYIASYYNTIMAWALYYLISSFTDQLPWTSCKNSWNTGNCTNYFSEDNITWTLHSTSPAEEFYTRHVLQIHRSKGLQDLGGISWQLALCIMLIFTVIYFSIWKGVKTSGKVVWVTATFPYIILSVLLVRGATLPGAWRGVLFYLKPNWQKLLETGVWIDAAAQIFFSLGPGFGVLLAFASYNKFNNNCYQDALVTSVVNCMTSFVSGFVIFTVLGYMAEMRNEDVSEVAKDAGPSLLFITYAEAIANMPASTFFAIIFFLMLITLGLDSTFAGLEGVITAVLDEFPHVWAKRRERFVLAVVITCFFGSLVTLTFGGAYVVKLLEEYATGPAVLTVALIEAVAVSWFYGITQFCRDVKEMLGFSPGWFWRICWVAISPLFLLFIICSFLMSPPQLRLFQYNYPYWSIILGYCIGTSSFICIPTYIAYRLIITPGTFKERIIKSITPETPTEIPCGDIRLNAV

Row | pKi [1] | pKi [2] | SMILES
1 | 5.25 | 6.00 | FC(F)(F)Oc1ccccc1-c1ccccc1CO[C@H]1CCNC1 [Example D-37, (S)-3-(2′-Trifluoromethoxy-biphenyl-2-ylmethoxy)-pyrrolidine]
2 | 6.84 | 6.13 | COc1c(C)cc(-c2ccc(F)cc2CO[C@H]2CCNC2)cc1C [Example D-92, (S)-3-(4-Fluoro-4′-methoxy-3′,5′-dimethyl-biphenyl-2-ylmethoxy)-pyrrolidine]
3 | ≤ 5.00 | ≤ 5.00 | COc1ccc(-c2ccccc2CO[C@H]2CCNC2)c(OC)c1 [Example D-54, (S)-3-(2′,4′-Dimethoxy-biphenyl-2-ylmethoxy)-pyrrolidine]
4 | ≤ 5.00 | 5.60 | CC(=O)c1ccccc1-c1ccccc1CO[C@H]1CCNC1 [Example D-42, (S)-1-[2′-(Pyrrolidin-3-yloxymethyl)-biphenyl-2-yl]-ethanone]
5 | 7.30 | 6.58 | Fc1ccc(-c2cc(Cl)cc(Cl)c2)c(CO[C@H]2CCNC2)c1 [Example D-65, (S)-3-(3′,5′-Dichloro-4-fluoro-biphenyl-2-ylmethoxy)-pyrrolidine]
6 | 7.92 | 7.95 | Fc1ccc(-c2ccccc2CO[C@H]2CCNC2)cc1F [Example A-5, (S)-3-(3′-4′-Difluoro-biphenyl-2-ylmethyloxy)-pyrrolidine hydrochloride]
7 | 7.57 | 7.40 | Cc1cc(-c2ccccc2CO[C@H]2CCNC2)ccc1F [Example D-11, (S)-3-(4′-Fluoro-3′-methyl-biphenyl-2-ylmethoxy)-pyrrolidine]
8 | 6.22 | 6.17 | COc1ccc(-c2ccc(F)cc2CO[C@H]2CCNC2)cc1 [Example D-115, (S)-3-(4-Fluoro-4′-methoxy-biphenyl-2-ylmethoxy)-pyrrolidine]
9 | 6.05 | ≤ 5.00 | COc1cccc(-c2ccccc2CO[C@H]2CCNC2)c1C(=O)N(C(C)C)C(C)C [Example D-60, (S)-3-Methoxy-2′-(pyrrolidin-3-yloxymethyl)-biphenyl-2-carboxylic acid diisopropylamide]
10 | 6.52 | 7.83 | Fc1ccccc1-c1ccccc1CO[C@H]1CCNC1 [Example D-3, (S)-3-(2′-Fluoro-biphenyl-2-ylmethoxy)-pyrrolidine]
11 | 6.15 | 5.35 | c1ccc(-c2ccc3c(c2)OCCCO3)c(CO[C@H]2CCNC2)c1 [Example D-50, (S)-3-[2-(3,4-Dihydro-2H-benzo[b][1,4]dioxepin-7-yl)-benzyloxy]-pyrrolidine]
12 | 7.22 | 6.84 | COc1cccc(-c2ccc(F)cc2CO[C@H]2CCNC2)c1 [Example D-114, (S)-3-(4-Fluoro-3′-methoxy-biphenyl-2-ylmethoxy)-pyrrolidine]
13 | 5.37 | 6.24 | CCOc1ncccc1-c1ccccc1CO[C@H]1CCNC1 [Example D-120, (S)-2-Ethoxy-3-[2-(pyrrolidin-3-yloxymethyl)-phenyl]-pyridine]
14 | 6.50 | 7.58 | Fc1ccccc1-c1ccccc1CO[C@H]1CCNC1 [Example D-10, (S)-3-(2′-Fluoro-biphenyl-2-ylmethoxy)-pyrrolidine]
15 | 7.41 | 5.92 | OCc1cccc(-c2ccccc2CO[C@H]2CCNC2)c1 [Example D-38, (S)-[2′-(Pyrrolidin-3-yloxymethyl)-biphenyl-3-yl]-methanol]
16 | 6.70 | ≤ 5.00 | FC(F)(F)c1ccc(-c2ccccc2CO[C@H]2CCNC2)cc1 [Example D-55, (S)-3-(4′-Trifluoromethyl-biphenyl-2-ylmethoxy)-pyrrolidine]
17 | 5.91 | 5.93 | COc1ccc(OC)c(-c2ccc(F)cc2CO[C@H]2CCNC2)c1 [Example D-68, (S)-3-(4-Fluoro-2′,5′-dimethoxy-biphenyl-2-ylmethoxy)-pyrrolidine]

Row | pKi [1] | pKi [2] | SMILES
18 | 5.51 | 6.33 | COc1ccccc1-c1ccccc1CO[C@H]1CCNC1 [Example D-31, (S)-3-(2′-Methoxy-biphenyl-2-ylmethoxy)-pyrrolidine]
19 | 7.15 | – | Fc1ccc(Cl)cc1-c1ccccc1CO[C@H]1CCNC1 [Example D-9, (S)-3-(5′-Chloro-2′-fluoro-biphenyl-2-ylmethoxy)-pyrrolidine]
20 | 6.50 | 6.32 | N#Cc1cccc(-c2ccc(F)cc2CO[C@H]2CCNC2)c1 [Example D-62, (S)-4′-Fluoro-2′-(pyrrolidin-3-yloxymethyl)-biphenyl-3-carbonitrile]
21 | 6.31 | 6.39 | COc1ccc(-c2ccc(F)cc2CO[C@H]2CCNC2)cc1F [Example D-100, (S)-3-(4,3′-Difluoro-4′-methoxy-biphenyl-2-ylmethoxy)-pyrrolidine]
22 | 6.66 | 6.99 | Fc1ccc(Cl)c(-c2ccccc2CO[C@H]2CCNC2)c1 [Example D-18, (S)-3-(2′-Chloro-5′-fluoro-biphenyl-2-ylmethoxy)-pyrrolidine]
23 | 7.82 | 7.33 | Fc1ccc(-c2ccccc2CO[C@H]2CCNC2)cc1Cl [Example D-14, (S)-3-(3′-Chloro-4′-fluoro-biphenyl-2-ylmethoxy)-pyrrolidine]
24 | 7.00 | 7.59 | Fc1cccc(-c2cccc(F)c2CO[C@H]2CCNC2)c1F [Example A-33, (3S)-3-[(2′,3,3′-trifluorobiphenyl-2-yl)methoxy]pyrrolidine fumarate]
25 | 7.35 | 7.44 | Fc1cccc(-c2ccc(F)cc2CO[C@H]2CCNC2)c1 [Example D-80, (S)-3-(4,3′-Difluoro-biphenyl-2-ylmethoxy)-pyrrolidine]
26 | 6.57 | 6.72 | Cc1ccc(C)c(-c2ccc(F)cc2CO[C@H]2CCNC2)c1 [Example D-89, (S)-3-(4-Fluoro-2′,5′-dimethyl-biphenyl-2-ylmethoxy)-pyrrolidine]
27 | 7.46 | 7.87 | c1ccc(-c2ccccc2CO[C@H]2CCNC2)cc1 [Example A-7, (S)-3-(Biphenyl-2-ylmethoxy)-pyrrolidine hydrochloride]
28 | 7.61 | 6.97 | CSc1cccc(-c2ccccc2CO[C@H]2CCNC2)c1 [Example D-20, (S)-3-(3′-Methylsulfanyl-biphenyl-2-ylmethoxy)-pyrrolidine]
29 | 7.15 | 5.72 | COc1ccc(-c2ccc(F)cc2CO[C@H]2CCNC2)cc1OC [Example D-84, (S)-3-(4-Fluoro-3′,4′-dimethoxy-biphenyl-2-ylmethoxy)-pyrrolidine]
30 | 6.71 | 6.08 | CCOc1cccc(-c2ccc(F)cc2CO[C@H]2CCNC2)c1 [Example D-70, (S)-3-(3′-Ethoxy-4-fluoro-biphenyl-2-ylmethoxy)-pyrrolidine]
31 | 6.28 | – | CCc1ccc(-c2ccccc2CO[C@H]2CCNC2)cc1 [Example D-39, (S)-(4′-Ethyl-biphenyl-2-ylmethoxy)-pyrrolidine]
32 | 6.91 | 6.57 | COc1c(C)cc(-c2ccccc2CO[C@H]2CCNC2)cc1C [Example D-25, (S)-(4′-Methoxy-3′,5′-dimethyl-biphenyl-2-ylmethoxy)-pyrroldine]
33 | 6.81 | – | Cc1ccc(C)c(-c2ccccc2CO[C@H]2CCNC2)c1 [Example D-23, (S)-3-(2′,5′-Dimethyl-biphenyl-2-ylmethoxy)-pyrrolidine]
34 | – | 7.30 | Cc1cc(F)ccc1-c1ccccc1CO[C@H]1CCNC1 [Example A-12, (S)-3-(4′-Fluoro-2′-methyl-biphenyl-2-ylmethoxy)-pyrrolidine hydrochloride]
